# Where a name gives a salt, the structure may show the parent alone.
# Biological target: T1, ACC1 from rat liver (Rattus norvegicus, UniProt P11497)
# T1 construct: The livers (for ACC1 preparation) or skeletal muscle tissue (for ACC2 preparation) are removed; from tissue; host or cells: liver of male CD rats (fasted, then fed a high sucrose diet)
# Assay: Direct inhibition of ACC1 activity (14C-bicarbonate incorporation)
# Type: biochemical
# Conditions: ACC1 from rat liver
# Method in brief: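 ACC1 partially purified from livers of fasted/sucrose-refed male rats by PEG and ammonium sulfate fractionation, then preincubated 30 min at 37°C with 10 mM citrate and 1.0 mM MgCl2. Reaction ran 7 min at 37°C, stopped with HCl; acid-stable radioactivity counted by scintillation; HCl-first tubes served as blanks.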
row,IC50,Compound
1,0.85 µM,"Cc1ccc2c(c1)OC1(CCN(C(=O)c3cccc4cn[nH]c34)CC1)CC2=O [Ex. H12, 1′-(1H-indazol-7-ylcarbonyl)-7-methylspiro[chromene-2,4-piperidin]4(3H)-one]"
2,< 3 µM,"Cc1cc2c(cc1C)C(=O)CC1(CCN(C(=O)c3ccc4c(c3)CC(=O)N4)CC1)O2 [Ex. L13, 6,7-dimethyl-1′-[(2-oxo-2,3-dihydro-1H-indol-5-yl)carbonyl]spiro[chromene-2,4′-piperidin]-4(3H)-one]"
3,0.0357 µM,"Cc1cc2c(cc1C)C(=O)CC1(CCN(C(=O)c3ccc4c(C)n[nH]c4c3)CC1)O2 [Ex. F1, 6,7-dimethyl-1′-[(3-methyl-1H-indazol-6-yl)carbonyl]spiro[chromene-2,4′-piperidin]-4(3H)-one]"
4,0.164 µM,"Cc1cc2c(cc1C)C(=O)CC1(CCN(C(=O)c3ccc4nc[nH]c4c3)CC1)O2 [Ex. L22, 1′-(1H-benzimidazol-5-ylcarbonyl)-6,7-dimethylspiro[chromene-2,4′-piperidin]-4(3H)-one trifluoroacetic acid salt]"
5,1.17 µM,"Cc1cc2c(cc1C)C(=O)CC1(CCN(C(=O)c3ccc4c(c3)ncn4C)CC1)O2 [Ex. L23, 6,7-dimethyl-1′-[(1-methyl-1H-benzimidazol-5-yl)carbonyl]spiro[chromene-2,4′-piperidin]-4(3H)-one trifluoroacetic acid salt]"
6,0.586 µM,"Cc1n[nH]c2cc(C(=O)N3CCC4(CC3)CC(=O)c3cc(C(=O)O)ccc3O4)ccc12 [Ex. F5, 1′-[(3-methyl-1H-indazol-6-yl)carbonyl]-4-oxo-3,4-dihydrospiro[chromene-2,4′-piperidine]-6-carboxylic acid trifluoroacetic acid salt]"
7,0.0495 µM,"CCc1cc(C(=O)N2CCC3(CC2)CC(=O)c2cc(C(=O)OC)ccc2O3)cc2cn[nH]c12 [Ex. C5, methyl 1′-[(7-ethyl-1H-indazol-5-yl)carbonyl]-4-oxo-3,4-dihydrospiro[chromene-2,4′-piperidine]-6-carboxylate]"
8,0.25 µM,"Cc1cc2c(cc1Cl)C(=O)CC1(CCN(C(=O)c3ccc4c(cnn4C)c3)CC1)O2 [Ex. D3, 6-chloro-7-methyl-1′-[(1-methyl-1H-indazol-5-yl)carbonyl]spiro[chromene-2,4′-piperidin]-4(3H)-one]"
9,0.0507 µM,"Cc1cc2c(cc1C)C(=O)CC1(CCN(C(=O)c3ccc4nc(-c5ccncc5)[nH]c4c3)CC1)O2 [Ex. L36, 6,7-dimethyl-1′-[(2-pyridin-4-yl-1H-benzimidazol-6-yl)carbonyl]spiro[chromene-2,4′-piperidin]-4(3H)-one trifluoroacetic acid salt]"
10,0.0543 µM,"COC(=O)c1ccc2c(c1)C(=O)CC1(CCN(C(=O)c3cc(C)c4[nH]nc(C)c4c3)CC1)O2 [Ex. E4, methyl 1′-[(3,7-dimethyl-1H-indazol-5-yl)carbonyl]-4-oxo-3,4-dihydrospiro[chromene-2,4′-piperidine]-6-carboxylate]"
11,0.825 µM,"Cc1nc2cc(C(=O)N3CCC4(CC3)CC(=O)c3cc(C)c(C)cc3O4)ccc2[nH]1 [Ex. L24, 6,7-dimethyl-1′-[(2-methyl-1H-benzimidazol-5-yl)carbonyl]spiro[chromene-2,4′-piperidin]-4(3H)-one trifluoroacetic acid salt]"
12,0.0801 µM,"CCc1nn(C)c2cc(C(=O)N3CCC4(CC3)CC(=O)c3cc(C)c(C)cc3O4)ccc12 [Ex. G4, 1′-[(3-ethyl-1-methyl-1H-indazol-6-yl)carbonyl]-6,7-dimethylspiro[chromene-2,4′-piperidin]-4(3H)-one]"
13,> 3 µM,O=C1CC2(CCN(C(=O)c3cccc4cn[nH]c34)CC2)Oc2ccccc21
14,0.163 µM,"Cc1cc2c(cc1C)C(=O)CC1(CCN(C(=O)c3cccc4cn[nH]c34)CC1)O2 [Ex. H1, 1′-(1H-indazol-7-ylcarbonyl)-6,7-dimethylspiro[chromene-2,4′-piperidin]-4(3H)-one]"
15,0.0536 µM,"Cc1ccc2c(c1)C(=O)CC1(CCN(C(=O)c3cc(C)c4[nH]ncc4c3)CC1)O2 [Ex. A15, 6-methyl-1′-[(7-methyl-1H-indazol-5-yl)carbonyl]spiro[chromene-2,4′-piperidin]-4(3H)-one]"
16,1.62 µM,COc1cccc2c1C(=O)CC1(CCN(C(=O)c3cccc4cn[nH]c34)CC1)O2 [Ex. H16]
17,0.885 µM,"Cc1cc2c(cc1C)C(=O)CC1(CCN(C(=O)c3cccc4[nH]cnc34)CC1)O2 [Ex. L17, 1′-(1H-benzimidazol-4-ylcarbonyl)-6,7-dimethylspiro[chromene-2,4′-piperidin]-4(3H)-one trifluoroacetic acid salt]"
18,1.83 µM,"COc1c(Cl)ccc2c1C(=O)CC1(CCN(C(=O)c3cccc4cn[nH]c34)CC1)O2 [Ex. H17, 6-chloro-1′-(1H-indazol-7-ylcarbonyl)-5-methoxyspiro[chromene-2,4′-piperidin]-4(3H)-one]"

# Same assay, conditions: Table of Examples M1-M36
row,IC50,Compound
1,0.22 µM,"O=C1CC2(CCN(C(=O)c3cccc(-c4cc[nH]n4)c3)CC2)Oc2ccc(OC(F)(F)F)cc21 [Ex. M13, 1′-[3-(1H-pyrazol-3-yl)benzoyl]-6-(trifluoromethoxy)spiro[chromene-2,4′-piperidin]-4(3H)-one]"
2,0.545 µM,"COc1cccc2c1C(=O)CC1(CCN(C(=O)c3cccc(-c4cc[nH]n4)c3)CC1)O2 [Ex. M27, 5-methoxy-1′-[3-(1H-pyrazol-3-yl)benzoyl]spiro[chromene-2,4′-piperidin]-4(3H)-one]"
3,0.452 µM,"Cc1cc2c(c(C)c1Cl)C(=O)CC1(CCN(C(=O)c3cccc(-c4cc[nH]n4)c3)CC1)O2 [M22, 6-chloro-5,7-dimethyl-1′-[3-(1H-pyrazol-3-yl)benzoyl]spiro[chromene-2,4′-piperidin]-4(3H)-one]"
4,0.118 µM,"NC(=O)c1ccc2c(c1)C(=O)CC1(CCN(C(=O)c3cccc(-c4cc[nH]n4)c3)CC1)O2 [Ex. M5, 4-oxo-1′-[3-(1H-pyrazol-3-yl)benzoyl]-3,4-dihydrospiro[chromene-2,4′-piperidine]-6-carboxamide]"
5,0.178 µM,"O=C1CC2(CCN(C(=O)c3cccc(-c4cc[nH]n4)c3)CC2)Oc2cc(Cl)c(Cl)cc21 [Ex. M8, 6,7-dichloro-1′-[3-(1H-pyrazol-3-yl)benzoyl]spiro[chromene-2,4′-piperidin]-4(3H)-one]"
6,0.374 µM,"COc1c(Cl)ccc2c1C(=O)CC1(CCN(C(=O)c3cccc(-c4cc[nH]n4)c3)CC1)O2 [Ex. M18, 6-chloro-5-methoxy-1′-[3-(1H-pyrazol-3-yl)benzoyl]spiro[chromene-2,4′-piperidin]-4(3H)-one]"
7,0.697 µM,"COc1cc2c(cc1OC)C(=O)CC1(CCN(C(=O)c3cccc(-c4cc[nH]n4)c3)CC1)O2 [Ex. M31, 6,7-Dimethoxy-1′-[3-(1H-pyrazol-3-yl)benzoyl]spiro[chromene-2,4′-piperidin]-4(3H)-one]"
8,0.202 µM,"COC(=O)c1ccc2c(c1)C(=O)CC1(CCN(C(=O)c3cccc(-c4cc[nH]n4)c3)CC1)O2 [Ex. M11, methyl 4-oxo-1′-[3-(1H-pyrazol-3-yl)benzoyl]-3,4-dihydrospiro[chromene-2,4′-piperidine]-6-carboxylate]"

# Same assay, conditions: Table of Examples P1-P15
row,IC50,Compound
1,0.0739 µM,"Cc1cc2c(cc1C)C(=O)CC1(CCN(C(=O)c3cccc(-c4ncc[nH]4)c3)CC1)O2 [Ex. P12, 1′-[3-(1H-imidazol-2-yl)benzoyl]-6,7-dimethylspiro[chromene-2,4′-piperidin]-4(3H)-one trifluoroacetic acid salt]"
2,0.399 µM,"Cc1cc2c(cc1C)C(=O)CC1(CCN(C(=O)c3cccc(-n4cccn4)c3)CC1)O2 [Ex. P11, 6,7-Dimethyl-1′-[3-(1H-pyrazol-1-yl)benzoyl]spiro[chromene-2,4′-piperidin]-4(3H)-one]"
3,0.621 µM,"CCOc1ccc(-c2cc[nH]n2)cc1C(=O)N1CCC2(CC1)CC(=O)c1cc(C)c(C)cc1O2 [Ex. P8, 1′-[2-ethoxy-5-(1H-pyrazol-3-yl)benzoyl]-6,7-dimethylspiro[chromene-2,4′-piperidin]-4(3H)-one]"
4,< 3 µM,"CCOc1ccc(-c2cc[nH]n2)cc1C(=O)N1CCC2(CC1)CC(=O)c1cc(C)c(C)cc1O2 [Ex. P7, 1′-[2-ethoxy-5-(1H-pyrazol-3-yl)benzoyl]-6,7-dimethylspiro[chromene-2,4′-piperidin]-4(3H)-one trifluoroacetic acid salt]"
